pIC50: −log10 of the molar value.
Target: DNA gyrase subunit A (Mycobacterium tuberculosis (strain ATCC 25618 / H37Rv), UniProt P9WG47)
Assay: Enzyme Assay
Experimental: Mycobacterium tuberculosis gyrase supercoiling, relaxation, and decatenation assays were carried out as described previously.

DNA gyrase subunit A, sequence (P9WG47 whole entry): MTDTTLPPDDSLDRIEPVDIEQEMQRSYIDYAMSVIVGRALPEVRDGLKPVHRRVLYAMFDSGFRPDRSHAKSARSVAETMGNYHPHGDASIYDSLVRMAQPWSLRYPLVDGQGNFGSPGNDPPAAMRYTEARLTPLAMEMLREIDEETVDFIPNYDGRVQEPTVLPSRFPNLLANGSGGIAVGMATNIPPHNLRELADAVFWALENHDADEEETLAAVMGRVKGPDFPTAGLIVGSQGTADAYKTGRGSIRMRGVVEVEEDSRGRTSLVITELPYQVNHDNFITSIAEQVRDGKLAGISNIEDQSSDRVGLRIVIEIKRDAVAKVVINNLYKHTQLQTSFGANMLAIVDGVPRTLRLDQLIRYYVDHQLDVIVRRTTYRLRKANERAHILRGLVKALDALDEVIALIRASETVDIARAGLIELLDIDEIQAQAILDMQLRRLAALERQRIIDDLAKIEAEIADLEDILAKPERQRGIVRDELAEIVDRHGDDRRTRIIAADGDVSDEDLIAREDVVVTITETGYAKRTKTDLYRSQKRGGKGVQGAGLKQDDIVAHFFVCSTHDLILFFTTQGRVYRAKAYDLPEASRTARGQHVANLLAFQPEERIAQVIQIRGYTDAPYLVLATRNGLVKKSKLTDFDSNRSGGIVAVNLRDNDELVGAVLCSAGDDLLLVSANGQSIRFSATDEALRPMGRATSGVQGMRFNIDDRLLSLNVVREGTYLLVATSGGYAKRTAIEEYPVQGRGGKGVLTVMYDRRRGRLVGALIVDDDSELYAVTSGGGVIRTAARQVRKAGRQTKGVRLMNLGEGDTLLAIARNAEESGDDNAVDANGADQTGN

Question: With Cc1cc(O)c2c(c1)C(=O)C=CC2=O [5-Hydroxy-7-methyl-[1,4]naphthoquinone] as the compound, how does the pIC50 read?
Answer: 4.52

Question: How did the pIC50 turn out when Cc1cc(O)c2c(c1)C(=O)C(c1c(C)cc3c(c1O)C(=O)C=CC3=O)=CC2=O [Diospyrin] was run?
Answer: 4.82

Question: Cc1cc2c(c(O)c1-c1c(C)cc(O)c3c1C(=O)C=CC3=O)C(=O)C=CC2=O [Isodiospyrin] was tested. Which pIC50 did it give?
Answer: 4.00

Question: How did the pIC50 turn out when Cc1cc(O)c2c(c1)C(=O)C=C(c1c(C)cc(O)c3c1C(=O)C=CC3=O)C2=O [Neodiospyrin] was run?
Answer: 4.30

Question: CC1=CC(=O)c2ccccc2C1=O [Vitamin K3] was tested. Which pIC50 did it give?
Answer: < 3.70

From BindingDB's records for doi:10.1074/jbc.M112.419069 (John Innes Centre, 2013)
